Laboratory results reported in ChEMBL document CHEMBL1649156, “Antianaerobic activity of sulopenem compared to six other agents” (2009).

Experiments:
Assay type in all cases: functional
Fusobacterium mortiferum = assay: Antimicrobial activity in Fusobacterium mortiferum by CLSI agar dilution method in presence of Tazobactam
Prevotella intermedia = assay: Antimicrobial activity in Prevotella intermedia by CLSI agar dilution method in presence of Tazobactam
Prevotella sp. = assay: Antimicrobial activity in Prevotella sp.by CLSI agar dilution method in presence of Tazobactam
[Clostridium] innocuum = Antimicrobial activity in Clostridium innocuum by CLSI agar dilution method in presence of Tazobactam
Clostridium cadaveris = assay: Antimicrobial activity in Clostridium cadaveris by CLSI agar dilution method in presence of Tazobactam
Prevotella disiens = assay: Antimicrobial activity in Prevotella disiens by CLSI agar dilution method in presence of Tazobactam
Tissierella praeacuta = assay: Antimicrobial activity in Clostridium hastiforme by CLSI agar dilution method in presence of Tazobactam
Clostridium sp. = assay: Antimicrobial activity in Clostridium sp. by CLSI agar dilution method in presence of Tazobactam
[1] = test system: Bacteroides thetaiotaomicron; assay: Antimicrobial activity in Bacteroides thetaiotaomicron by CLSI agar dilution method in presence of Tazobactam
Eggerthella lenta = assay: Antimicrobial activity in Eggerthella lenta by CLSI agar dilution method in presence of Tazobactam
Prevotella corporis = assay: Antimicrobial activity in Prevotella corporis by CLSI agar dilution method in presence of Tazobactam
Bacteroides uniformis = assay: Antimicrobial activity in Bacteroides uniformis by CLSI agar dilution method in presence of Tazobactam
Bifidobacterium = assay: Antimicrobial activity in Bifidobacterium by CLSI agar dilution method in presence of Tazobactam
Cutibacterium acnes = assay: Antimicrobial activity in Propionibacterium acnes by CLSI agar dilution method in presence of Tazobactam
Clostridium tertium = assay: Antimicrobial activity in Clostridium tertium by CLSI agar dilution method in presence of Tazobactam
Parvimonas micra = assay: Antimicrobial activity in Micromonas micros by CLSI agar dilution method in presence of Tazobactam
Phocaeicola vulgatus = assay: Antimicrobial activity in Bacteroides vulgatus by CLSI agar dilution method in presence of Tazobactam
Clostridium butyricum = assay: Antimicrobial activity in Clostridium butyricum by CLSI agar dilution method in presence of Tazobactam
Bacteroides ovatus = assay: Antimicrobial activity in Bacteroides ovatus by CLSI agar dilution method in presence of Tazobactam
Fusobacterium nucleatum = assay: Antimicrobial activity in Fusobacterium nucleatum by CLSI agar dilution method in presence of Tazobactam
[2] = test system: Parabacteroides distasonis; assay: Antimicrobial activity in Bacteroides distasonis by CLSI agar dilution method in presence of Tazobactam
Prevotella salivae = assay: Antimicrobial activity in Prevotella salivae by CLSI agar dilution method in presence of Tazobactam; conditions: Segatella salivae
[3] = test system: Peptostreptococcus anaerobius; assay: Antimicrobial activity in Peptostreptococcus anaerobius by CLSI agar dilution method in presence of Tazobactam
[4] = test system: Paeniclostridium sordellii; assay: Antimicrobial activity in Clostridium sordellii by CLSI agar dilution method in presence of Tazobactam; conditions: Paraclostridium sordellii
Prevotella baroniae = assay: Antimicrobial activity in Prevotella baroniae by CLSI agar dilution method in presence of Tazobactam; conditions: Segatella baroniae
Porphyromonas gingivalis = assay: Antimicrobial activity in Porphyromonas gingivalis by CLSI agar dilution method in presence of Tazobactam
[5] = test system: Paraclostridium bifermentans; assay: Antimicrobial activity in Clostridium bifermentans by CLSI agar dilution method in presence of Tazobactam
Prevotella nigrescens = assay: Antimicrobial activity in Prevotella nigrescens by CLSI agar dilution method in presence of Tazobactam
[6] = test system: Enterocloster clostridioformis; assay: Antimicrobial activity in Clostridium clostridioforme by CLSI agar dilution method in presence of Tazobactam
[7] = test system: Prevotella melaninogenica; assay: Antimicrobial activity in Prevotella melaninogenica by CLSI agar dilution method in presence of Tazobactam
Fusobacterium varium = assay: Antimicrobial activity in Fusobacterium varium by CLSI agar dilution method in presence of Tazobactam
Bacteroides stercoris = assay: Antimicrobial activity in Bacteroides stercoris by CLSI agar dilution method in presence of Tazobactam
Clostridium perfringens = assay: Antimicrobial activity in Clostridium perfringens by CLSI agar dilution method in presence of Tazobactam
Lactobacillus = assay: Antimicrobial activity in Lactobacillus by CLSI agar dilution method in presence of Tazobactam
Prevotella bergensis = assay: Antimicrobial activity in Prevotella bergensis by CLSI agar dilution method in presence of Tazobactam; conditions: Hallella bergensis
Thomasclavelia ramosa = assay: Antimicrobial activity in Clostridium ramosum by CLSI agar dilution method in presence of Tazobactam
Prevotella buccae = assay: Antimicrobial activity in Prevotella buccae by CLSI agar dilution method in presence of Tazobactam; conditions: Segatella buccae
Finegoldia magna = assay: Antimicrobial activity in Finegoldia magna by CLSI agar dilution method in presence of Tazobactam
Actinomyces = assay: Antimicrobial activity in Actinomyces by CLSI agar dilution method in presence of Tazobactam
Hoylesella loescheii = assay: Antimicrobial activity in Prevotella loescheii by CLSI agar dilution method in presence of Tazobactam
Prevotella bivia = assay: Antimicrobial activity in Prevotella bivia by CLSI agar dilution method in presence of Tazobactam
[8] = test system: Peptoniphilus asaccharolyticus; assay: Antimicrobial activity in Peptoniphilus asaccharolyticus by CLSI agar dilution method in presence of Tazobactam
Prevotella veroralis = assay: Antimicrobial activity in Prevotella veroralis by CLSI agar dilution method in presence of Tazobactam
[9] = test system: Porphyromonas asaccharolytica; assay: Antimicrobial activity in Porphyromonas asaccharolytica by CLSI agar dilution method in presence of Tazobactam
Bacteroides fragilis = assay: Antimicrobial activity in Bacteroides fragilis by CLSI agar dilution method in presence of Tazobactam
Prevotella denticola = assay: Antimicrobial activity in Prevotella denticola by CLSI agar dilution method in presence of Tazobactam
Anaerococcus prevotii = assay: Antimicrobial activity in Anaerococcus prevotii by CLSI agar dilution method in presence of Tazobactam
Clostridioides difficile = assay: Antimicrobial activity in Clostridium difficile by CLSI agar dilution method in presence of Tazobactam
[10] = test system: Fusobacterium necrophorum; assay: Antimicrobial activity in Fusobacterium necrophorum by CLSI agar dilution method in presence of Tazobactam
Hoylesella oralis = assay: Antimicrobial activity in Prevotella oralis group by CLSI agar dilution method in presence of Tazobactam
Anaerococcus tetradius = assay: Antimicrobial activity in Anaerococcus tetradius by CLSI agar dilution method in presence of Tazobactam

CCN1CCN(C(=O)N[C@@H](C(=O)N[C@@H]2C(=O)N3[C@@H]2SC(C)(C)[C@@H]3C(=O)O)c2ccccc2)C(=O)C1=O [PIPERACILLIN]
4 µg/mL: MIC (Clostridium tertium) | MIC90 (Bacteroides ovatus) | MIC50 [2] | MIC90 [2] | MIC50 (Fusobacterium varium)
0.5 µg/mL: MIC (Bacteroides uniformis) | MIC (Clostridium butyricum) | MIC [5] | MIC90 (Clostridium perfringens) | MIC (Actinomyces) | MIC50 (Bacteroides fragilis)
≤ 0.125 µg/mL: MIC (Prevotella intermedia) | MIC50 (Prevotella intermedia) | MIC90 (Prevotella intermedia) | MIC (Prevotella sp.) | MIC ([Clostridium] innocuum) | MIC (Clostridium cadaveris) | MIC (Prevotella disiens) | MIC50 (Prevotella disiens) | MIC (Prevotella corporis) | MIC50 (Prevotella corporis) | MIC (Bifidobacterium) | MIC50 (Bifidobacterium) | MIC (Parvimonas micra) | MIC50 (Parvimonas micra) | MIC90 (Parvimonas micra) | MIC (Fusobacterium nucleatum) | MIC50 (Fusobacterium nucleatum) | MIC90 (Fusobacterium nucleatum) | MIC (Prevotella salivae) | MIC [4] | MIC (Prevotella baroniae) | MIC (Porphyromonas gingivalis) | MIC (Prevotella nigrescens) | MIC50 (Prevotella nigrescens) | MIC90 (Prevotella nigrescens) | MIC [7] | MIC50 [7] | MIC90 [7] | MIC (Bacteroides stercoris) | MIC (Clostridium perfringens) | MIC50 (Clostridium perfringens) | MIC (Prevotella bergensis) | MIC (Thomasclavelia ramosa) | MIC (Prevotella buccae) | MIC50 (Prevotella buccae) | MIC90 (Prevotella buccae) | MIC (Finegoldia magna) | MIC50 (Finegoldia magna) | MIC (Hoylesella loescheii) | MIC (Prevotella bivia) | MIC50 (Prevotella bivia) | MIC90 (Prevotella bivia) | MIC [8] | MIC50 [8] | MIC (Prevotella veroralis) | MIC [9] | MIC (Prevotella denticola) | MIC50 (Prevotella denticola) | MIC90 (Prevotella denticola) | MIC (Anaerococcus prevotii) | MIC [10] | MIC50 [10] | MIC (Hoylesella oralis) | MIC (Anaerococcus tetradius) | MIC50 (Anaerococcus tetradius)
2 µg/mL: MIC (Tissierella praeacuta) | MIC90 (Clostridium sp.) | MIC50 (Phocaeicola vulgatus) | MIC50 (Bacteroides ovatus) | MIC50 (Lactobacillus) | MIC90 (Lactobacillus) | MIC90 (Bacteroides fragilis)
1 µg/mL: MIC90 (Fusobacterium mortiferum) | MIC50 (Clostridium sp.) | MIC50 (Bacteroides uniformis) | MIC90 (Cutibacterium acnes) | MIC50 (Bacteroides stercoris) | MIC50 (Actinomyces)
0.25 µg/mL: MIC (Fusobacterium mortiferum) | MIC50 (Fusobacterium mortiferum) | MIC90 (Bifidobacterium) | MIC50 (Cutibacterium acnes) | MIC [3] | MIC50 [3] | MIC90 (Finegoldia magna) | MIC90 (Anaerococcus tetradius)
16 µg/mL: MIC90 [1] | MIC50 (Eggerthella lenta) | MIC90 (Eggerthella lenta) | MIC90 (Phocaeicola vulgatus) | MIC90 [3] | MIC90 (Clostridioides difficile)
8 µg/mL: MIC50 [1] | MIC50 (Clostridium tertium) | MIC [6] | MIC90 (Fusobacterium varium) | MIC (Clostridioides difficile) | MIC50 (Clostridioides difficile)
